In one assay the test system is Coxsackievirus B3. The experiment in a line: Antiviral activity against Coxsackievirus B3 infected in African green monkey Vero cells. The settings on record: Enterovirus B. The class given is functional, organism-based.
Assay [1] deals with Mus musculus. The experiment in a line: Antinociceptive activity in Kunming mouse model assessed as inhibition of acetic acid-induced writhes at 0.08 mg/kg, ip pretreated for 30 mins followed by acetic acid challenge and measured for 30 mins post acetic acid challenge relative to control. The class given is functional.
Assay [2] concerns the target T1, Tyrosine-protein phosphatase non-receptor type 1 (Homo sapiens, UniProt P18031).
T1 sequence (P18031 whole entry): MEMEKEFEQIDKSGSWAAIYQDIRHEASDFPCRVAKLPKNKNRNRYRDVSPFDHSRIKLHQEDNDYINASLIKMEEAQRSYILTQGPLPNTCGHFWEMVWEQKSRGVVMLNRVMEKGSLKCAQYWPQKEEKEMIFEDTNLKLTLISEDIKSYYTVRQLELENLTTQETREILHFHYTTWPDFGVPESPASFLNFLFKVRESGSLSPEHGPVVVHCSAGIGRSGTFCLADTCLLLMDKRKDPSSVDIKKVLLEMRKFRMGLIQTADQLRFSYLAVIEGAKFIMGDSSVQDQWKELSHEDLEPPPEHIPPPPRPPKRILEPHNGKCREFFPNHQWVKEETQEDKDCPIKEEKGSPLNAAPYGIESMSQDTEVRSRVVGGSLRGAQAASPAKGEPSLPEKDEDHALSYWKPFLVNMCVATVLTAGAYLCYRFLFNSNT
Put plainly: Inhibition of recombinant human PTP1B expressed in Escherichia coli using pNPP as substrate preincubated for 10 mins followed by substrate addition for 30 mins and measured at 5 mins interval for 30 mins.

Assay [3] deals with Mus musculus. Put plainly: Antinociceptive activity in Kunming mouse model assessed as inhibition of acetic acid-induced writhes at 5 mg/kg, ip pretreated for 15 mins followed by acetic acid challenge and measured for 20 mins post acetic acid challenge relative to control. The class given is functional.
Assay [4] deals with Mus musculus. Put plainly: Antinociceptive activity in ip dosed Kunming mouse model assessed as inhibition of acetic acid-induced writhes pretreated for 15 mins followed by acetic acid challenge and measured for 20 mins post acetic acid challenge. The class given is functional. The note with it: read-out: ID50 (the source's name).
The target of assay [5] is T1, Tyrosine-protein phosphatase non-receptor type 1. The experiment in a line: Inhibition of recombinant PTP1B catalytic domain (unknown origin) using pNPP as substrate.
The subject of the next assay is Pieris brassicae. Put plainly: Antifeedant activity in Pieris brassicae measured 24 hrs post leaf feeding by leaf disc method. The class given is functional, organism-based.
Another assay has as its system Influenza A virus. The experiment in a line: Antiviral activity against Influenza A virus (A/Hanfang/359/95(H3N2)) infected in MDCK cells assessed as reduction in virus-induced cytopathogenicity. The class given is functional, organism-based.
Assay [6] deals with T1, Tyrosine-protein phosphatase non-receptor type 1. Put plainly: Inhibition of recombinant human PTP1B expressed in Escherichia coli using pNPP as substrate preincubated for 30 mins followed by substrate addition for 45 mins and measured at 5 mins interval for 30 mins.
For assay [7], the system named is Mus musculus. The experiment in a line: Antinociceptive activity in Kunming mouse model assessed as inhibition of acetic acid-induced writhes at 10 mg/kg, ip pretreated for 15 mins followed by acetic acid challenge and measured for 20 mins post acetic acid challenge relative to control. The class given is functional.

SMILES strings stand for the structures.

Turning to `CC(=O)[C@@H]1C[C@@H](O)[C@H]2[C@@H](O)[C@@]1(C[C@H]1OC(=O)C(C)(C)[C@]1(O)CCO)C[C@@]2(C)O`, in the assay on Coxsackievirus B3, it took 27.7 µM to reach half-maximal inhibition (IC50). For `CO[C@H]1[C@H](O)C(C)(C)[C@@]2(O)[C@H](O)[C@@H](O)[C@]34C[C@@](C)(O)[C@H](CC[C@H]3[C@@](C)(O)[C@H]12)[C@H]4O`, the inhibition in vivo at 0.08 mg/kg with Mus musculus [1] stood at 56.8%.

Regarding `CO[C@@H]1O[C@H]2O[C@@H]3C[C@]45C[C@@](C)(O)[C@H](CC[C@H]4[C@@](C)(O3)[C@H]2CC1(C)C)[C@H]5O`, in assay [2], the IC50 came out at 42.4 µM. As to `CC(C)(O)[C@]12OC(=O)C[C@H]1[C@](C)(O)[C@@H]1CC[C@@H]3[C@@H](O)[C@@]1([C@H](O)[C@H]2O)[C@@H](O)[C@@]3(C)O`, the inhibition in vivo at 5 mg/kg in the assay with Mus musculus [3] came to 63.5%. The ED50 in the assay on Mus musculus [4] worked out at 1.24 mg/kg. In the case of `C=C1[C@H]2C[C@H](O)C(C)(C)[C@@]2(O)[C@H](O)C[C@]23C[C@@](C)(O)[C@H](CC[C@@H]12)[C@H]3O`, the IC50 in assay [5] stood at 24.5 µM. `CCC(=O)O[C@@H]1[C@@H](OC(C)=O)[C@@]2([C@](C)(O)CCl)OC(=O)C[C@H]2[C@](C)(O)[C@@H]2CC[C@@H]3[C@@H](OC(C)=O)[C@]12[C@@H](OC(C)=O)[C@@]3(C)OC(C)=O`: the EC50 in the assay with Pieris brassicae is on record as 10.07 microg/cm2. As for `C=C1[C@H]2C[C@H](O)C(C)(C)[C@@]2(O)[C@H](O)C[C@]23C=C(C)[C@H](CC[C@@H]12)[C@H]3O`, the IC50 in [5] came to 3.14 µM. Take `CC1(C)[C@H]2O[C@H]2[C@H]2[C@@]3(C)O[C@H](C[C@@]45C=C[C@@H](C[C@H]43)[C@](C)(O)C5)[C@]21C`: the IC50 in the assay with Influenza A virus turned out to be 19.2 µM. Consider `CO[C@H]1C[C@]23C[C@@](C)(O)[C@H](CC[C@H]2[C@](C)(C2=CO[C@H](OC)C(C)(C)C2=O)O1)[C@H]3O`, for which the IC50 in assay [2] turned out to be 16.7 µM. Turning to `CC1(C)CCC[C@H](O)[C@@]2(C)[C@@H]3CC[C@@H]4C[C@@]3(C[C@H]2C1=O)C[C@@]4(C)O`, the “inhibition (INH)” value in the assay on Pieris brassicae is on record as 45%. In the case of `Cc1cccc(C[C@H]2O[C@]3(C)O[C@@]24[C@@H]([C@@H](O)[C@H](O)C4(C)C)[C@H]3C)c1`, the IC50 in assay [6] stood at 32.2 µM. Turning to `CC1(C)[C@@H](O)[C@H](Cl)[C@H]2[C@](C)(O)[C@@H]3CC[C@@H]4[C@@H](O)[C@]3(C[C@@]4(C)O)[C@H](O)[C@@H](O)[C@@]21O`, the inhibition in vivo at 0.08 mg/kg in the assay on Mus musculus [1] stood at 49.8%. `CCC(=O)O[C@@H]1[C@H]2CC[C@H]3[C@@](C)(O)[C@@H]4CC(=O)O[C@]4([C@](C)(O)CCl)[C@H](OC(C)=O)[C@@H](OC(C)=O)[C@@]13[C@@H](OC(C)=O)[C@@]2(C)OC(C)=O` came in with an EC50 with Pieris brassicae of 5.33 microg/cm2. For `CC1=C[C@]23C[C@H]1CC[C@H]2[C@]1(C)[C@@H](O)CCCC(C)(C)C(=O)[C@@H]1C3`, in the assay on Pieris brassicae, the “inhibition (INH)” value was found to be 45%. For `CC1=C[C@@H]2O[C@@]3(C)[C@@H]4C[C@H](O)[C@H]1[C@]24C[C@@H](O)[C@@]1(O)[C@H]3[C@@H]2O[C@@H]2C1(C)C`, the IC50 in assay [2] turned out to be 24.3 µM.

Consider `CC(C)(O)[C@]12OC(=O)C[C@H]1[C@](C)(O)[C@@H]1[C@H](O)C[C@@H]3[C@@H](O)[C@@]1([C@H](O)[C@H]2O)[C@@H](O)[C@@]3(C)O`, for which the inhibition in vivo at 5 mg/kg in the assay on Mus musculus [3] worked out at 69.9%. For the same molecule, the ED50 in the assay with Mus musculus [4] was 0.72 mg/kg. In the case of `Cc1cccc(C[C@H]2O[C@]3(C)O[C@@]24[C@@H]([C@@H](O)[C@H](O)C4(C)C)[C@@H]3C)c1`, the IC50 in assay [6] was determined as 23 µM. In the case of `CO[C@@H]1C[C@]23C[C@@](C)(O)[C@H](CC[C@H]2[C@](C)(C2=CO[C@H](OC)C(C)(C)C2=O)O1)[C@H]3O`, the IC50 in assay [2] is 19.9 µM. As for `C[C@]12CC[C@H](O)[C@@]3(C)[C@@H]4CC[C@@H]5C[C@]4(C[C@@]5(C)O)C[C@@]3(OC1=O)C2=O`, the inhibition in vivo at 10 mg/kg with Mus musculus [7] was 45%. For the same molecule, in the assay on Pieris brassicae, the “inhibition (INH)” value turned out to be 45%. With `CC(O)C(=O)O[C@@H]1[C@H]2CC[C@H]3[C@@](C)(O)[C@@H]4[C@@H]5O[C@@H]5C(C)(C)[C@@]4(O)[C@H](O)C(=O)[C@@]13C[C@@]2(C)O` (stereo partly drawn), the inhibition in vivo at 0.08 mg/kg in the assay on Mus musculus [1] turned out to be 37.6%.

Values taken from ChEMBL document CHEMBL4316594, “An overview of grayanane diterpenoids and their biological activities from the Ericaceae family in the last seven years” (Eur J Med Chem, 2019).
